Experiments:
[1] = test system: NFF; assay: Cytotoxicity against human NFF cells after 3 days by SRB assay; assay type: cell-based; conditions: 72 h
[2] = test system: Plasmodium falciparum; assay: Antimalarial activity against ring stage of chloroquine-resistant Plasmodium falciparum Dd2 infected in erythrocytes assessed as [3H]-hypoxanthine incorporation after 48 hrs by liquid scintillation counting analysis; assay type: functional, organism-based
[3] = test system: Plasmodium falciparum; assay: Antimalarial activity against ring stage of chloroquine-sensitive Plasmodium falciparum 3D7 infected in erythrocytes assessed as [3H]-hypoxanthine incorporation after 48 hrs by liquid scintillation counting analysis; assay type: functional, organism-based
[4] = Selectivity index, ratio of IC50 for human NFF cells to IC50 for Plasmodium falciparum; assay type: toxicity, cell-based; conditions: NFF cells (versus Plasmodium falciparum), read-out: Ratio IC50

SMILES	IC50 [1]	IC50 [2]	IC50 [3]	selectivity ratio [4]
CC(=O)OC[C@H]1O[C@@H](SCc2nnn(-c3ccc(S(N)(=O)=O)cc3)c2I)[C@H](OC(C)=O)[C@@H](OC(C)=O)[C@@H]1OC(C)=O	51.1 µM	1.3 µM	0.9 µM	≥ 40
CC(=O)OC[C@H]1O[C@@H](SCc2nnn(-c3ccc(S(N)(=O)=O)cc3)c2I)[C@H](OC(C)=O)[C@@H](OC(C)=O)[C@H]1OC(C)=O	> 100 µM	4.1 µM	1.4 µM	
CC(=O)OC[C@H]1O[C@@H](S(=O)(=O)Cc2nnn(-c3ccc(S(N)(=O)=O)cc3)c2I)[C@H](OC(C)=O)[C@@H](OC(C)=O)[C@@H]1OC(C)=O	> 100 µM	7.8 µM	5.3 µM	
CC(=O)OC[C@H]1O[C@@H](S(=O)(=O)Cc2nnn(-c3ccc(S(N)(=O)=O)cc3)c2I)[C@H](OC(C)=O)[C@@H](OC(C)=O)[C@@H]1O[C@H]1O[C@H](COC(C)=O)[C@@H](OC(C)=O)[C@H](OC(C)=O)[C@H]1OC(C)=O	> 100 µM	2.4 µM	2.3 µM	
CC(=O)OC[C@H]1O[C@@H](S(=O)(=O)Cc2cn(-c3ccc(S(N)(=O)=O)cc3)nn2)[C@H](OC(C)=O)[C@@H](OC(C)=O)[C@@H]1O[C@H]1O[C@H](COC(C)=O)[C@@H](OC(C)=O)[C@H](OC(C)=O)[C@H]1OC(C)=O		14.7 µM	20.7 µM	
NS(=O)(=O)c1ccc(-n2nnc(CS[C@@H]3O[C@H](CO)[C@@H](O)[C@H](O)[C@H]3O)c2I)cc1	> 100 µM	1.9 µM	1 µM	≥ 40
NS(=O)(=O)c1ccc(-n2nnc(CS(=O)(=O)[C@@H]3O[C@H](CO)[C@@H](O)[C@H](O)[C@H]3O)c2I)cc1		> 50 µM	28.6 µM	
CC(=O)OC[C@H]1O[C@@H](S(=O)(=O)Cc2nnn(-c3ccccc3)c2I)[C@H](OC(C)=O)[C@@H](OC(C)=O)[C@@H]1OC(C)=O		3.4 µM	4.7 µM	
CC(=O)OC[C@H]1O[C@@H](OCc2cn(-c3ccccc3)nn2)[C@H](OC(C)=O)[C@@H](OC(C)=O)[C@@H]1OC(C)=O		> 50 µM	> 50 µM	
O=S(=O)(Cc1nnn(-c2ccccc2)c1I)[C@@H]1O[C@H](CO)[C@@H](O)[C@H](O)[C@H]1O		3.4 µM	3.8 µM	
CC(=O)OC[C@H]1O[C@@H](SCc2cn(-c3ccccc3)nn2)[C@H](OC(C)=O)[C@@H](OC(C)=O)[C@@H]1OC(C)=O		> 50 µM	> 50 µM	
OC[C@H]1O[C@@H](SCc2cn(-c3ccccc3)nn2)[C@H](O)[C@@H](O)[C@@H]1O		> 50 µM	> 50 µM	
CC(=O)OC[C@H]1O[C@@H](S(=O)(=O)Cc2cn(-c3ccccc3)nn2)[C@H](OC(C)=O)[C@@H](OC(C)=O)[C@@H]1OC(C)=O		> 50 µM	> 50 µM	
O=S(=O)(Cc1cn(-c2ccccc2)nn1)[C@@H]1O[C@H](CO)[C@@H](O)[C@H](O)[C@H]1O		> 50 µM	> 50 µM	
COC(=O)[C@H]1O[C@@H](SCc2nnn(-c3ccc(S(N)(=O)=O)cc3)c2I)[C@H](OC(C)=O)[C@@H](OC(C)=O)[C@@H]1OC(C)=O	> 100 µM	6 µM	2.1 µM	
CC(=O)OC[C@H]1O[C@@H](OCc2nnn(-c3ccc(S(N)(=O)=O)cc3)c2I)[C@H](OC(C)=O)[C@@H](OC(C)=O)[C@@H]1OC(C)=O	> 100 µM	2.6 µM	2.8 µM	
CC(=O)OC[C@H]1O[C@@H](SCc2nnn(-c3ccccc3)c2I)[C@H](OC(C)=O)[C@@H](OC(C)=O)[C@@H]1OC(C)=O		4.8 µM	4.6 µM	
OC[C@H]1O[C@@H](SCc2nnn(-c3ccccc3)c2I)[C@H](O)[C@@H](O)[C@@H]1O		4.4 µM	4.9 µM	
CC(=O)OC[C@H]1O[C@@H](OCc2nnn(-c3ccccc3)c2I)[C@H](OC(C)=O)[C@@H](OC(C)=O)[C@@H]1OC(C)=O		9.4 µM	10.6 µM	
CC(=O)OC[C@H]1O[C@@H](OCc2cn(-c3ccc(S(N)(=O)=O)cc3)nn2)[C@H](OC(C)=O)[C@@H](OC(C)=O)[C@@H]1OC(C)=O		11.7 µM	9.7 µM	
CC(=O)OC[C@H]1O[C@@H](S(=O)(=O)Cc2cn(-c3ccc(S(N)(=O)=O)cc3)nn2)[C@H](OC(C)=O)[C@@H](OC(C)=O)[C@@H]1OC(C)=O		> 50 µM	> 50 µM	
NS(=O)(=O)c1ccc(-n2cc(CS[C@@H]3O[C@H](CO)[C@@H](O)[C@H](O)[C@H]3O)nn2)cc1		> 50 µM	> 50 µM	
NS(=O)(=O)c1ccc(-n2cc(CS(=O)(=O)[C@@H]3O[C@H](CO)[C@@H](O)[C@H](O)[C@H]3O)nn2)cc1		> 50 µM	> 50 µM	
CC(=O)OC[C@H]1O[C@@H](SCc2cn(-c3ccc(S(N)(=O)=O)cc3)nn2)[C@H](OC(C)=O)[C@@H](OC(C)=O)[C@@H]1OC(C)=O		> 25 µM	31 µM	
CCN(CC)CCCC(C)Nc1ccnc2cc(Cl)ccc12 (stereo not drawn) [CHLOROQUINE]	> 1000 µM			
